Results taken from ChEMBL document CHEMBL1909046, “DrugMatrix in vitro pharmacology data”.

Assays:
[1] = biological target: T1, Type-2 angiotensin II receptor (Homo sapiens, UniProt P50052); format: cell-based; settings: cho-k1
T1 sequence (P50052 whole entry): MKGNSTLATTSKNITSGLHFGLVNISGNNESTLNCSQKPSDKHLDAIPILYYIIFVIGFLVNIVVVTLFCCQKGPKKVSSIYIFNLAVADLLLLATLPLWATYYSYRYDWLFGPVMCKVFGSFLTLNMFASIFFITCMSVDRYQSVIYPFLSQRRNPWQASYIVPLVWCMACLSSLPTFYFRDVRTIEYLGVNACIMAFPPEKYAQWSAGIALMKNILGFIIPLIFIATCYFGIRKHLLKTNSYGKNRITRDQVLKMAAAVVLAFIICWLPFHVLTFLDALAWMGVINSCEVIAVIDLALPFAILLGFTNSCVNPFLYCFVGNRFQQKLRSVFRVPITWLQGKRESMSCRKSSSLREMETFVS

[2] = biological target: 5-hydroxytryptamine receptor 2B (Homo sapiens, UniProt P41595); format: cell membranes, CHO-K1, Membrane
Chain of 5-hydroxytryptamine receptor 2B (P41595 whole entry): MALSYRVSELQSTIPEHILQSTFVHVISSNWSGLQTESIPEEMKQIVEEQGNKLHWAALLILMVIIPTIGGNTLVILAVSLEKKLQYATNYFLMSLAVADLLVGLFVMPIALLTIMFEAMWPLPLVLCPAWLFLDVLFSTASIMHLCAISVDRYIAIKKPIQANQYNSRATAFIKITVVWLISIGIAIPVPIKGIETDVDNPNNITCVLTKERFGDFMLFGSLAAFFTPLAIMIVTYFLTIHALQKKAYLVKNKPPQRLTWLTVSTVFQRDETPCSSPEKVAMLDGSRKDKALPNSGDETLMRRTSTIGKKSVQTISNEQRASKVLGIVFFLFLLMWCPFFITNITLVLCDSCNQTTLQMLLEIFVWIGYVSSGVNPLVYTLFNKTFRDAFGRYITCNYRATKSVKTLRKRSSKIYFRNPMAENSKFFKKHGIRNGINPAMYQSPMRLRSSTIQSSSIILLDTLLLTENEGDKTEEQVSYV

[3] = biological target: T2, Nitric oxide synthase, inducible (Mus musculus, UniProt P29477); design: species or system Escherichia coli;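 note: inhibition of iNOS enzyme activity measured with L-arginine as substrate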
T2 sequence (P29477 whole entry): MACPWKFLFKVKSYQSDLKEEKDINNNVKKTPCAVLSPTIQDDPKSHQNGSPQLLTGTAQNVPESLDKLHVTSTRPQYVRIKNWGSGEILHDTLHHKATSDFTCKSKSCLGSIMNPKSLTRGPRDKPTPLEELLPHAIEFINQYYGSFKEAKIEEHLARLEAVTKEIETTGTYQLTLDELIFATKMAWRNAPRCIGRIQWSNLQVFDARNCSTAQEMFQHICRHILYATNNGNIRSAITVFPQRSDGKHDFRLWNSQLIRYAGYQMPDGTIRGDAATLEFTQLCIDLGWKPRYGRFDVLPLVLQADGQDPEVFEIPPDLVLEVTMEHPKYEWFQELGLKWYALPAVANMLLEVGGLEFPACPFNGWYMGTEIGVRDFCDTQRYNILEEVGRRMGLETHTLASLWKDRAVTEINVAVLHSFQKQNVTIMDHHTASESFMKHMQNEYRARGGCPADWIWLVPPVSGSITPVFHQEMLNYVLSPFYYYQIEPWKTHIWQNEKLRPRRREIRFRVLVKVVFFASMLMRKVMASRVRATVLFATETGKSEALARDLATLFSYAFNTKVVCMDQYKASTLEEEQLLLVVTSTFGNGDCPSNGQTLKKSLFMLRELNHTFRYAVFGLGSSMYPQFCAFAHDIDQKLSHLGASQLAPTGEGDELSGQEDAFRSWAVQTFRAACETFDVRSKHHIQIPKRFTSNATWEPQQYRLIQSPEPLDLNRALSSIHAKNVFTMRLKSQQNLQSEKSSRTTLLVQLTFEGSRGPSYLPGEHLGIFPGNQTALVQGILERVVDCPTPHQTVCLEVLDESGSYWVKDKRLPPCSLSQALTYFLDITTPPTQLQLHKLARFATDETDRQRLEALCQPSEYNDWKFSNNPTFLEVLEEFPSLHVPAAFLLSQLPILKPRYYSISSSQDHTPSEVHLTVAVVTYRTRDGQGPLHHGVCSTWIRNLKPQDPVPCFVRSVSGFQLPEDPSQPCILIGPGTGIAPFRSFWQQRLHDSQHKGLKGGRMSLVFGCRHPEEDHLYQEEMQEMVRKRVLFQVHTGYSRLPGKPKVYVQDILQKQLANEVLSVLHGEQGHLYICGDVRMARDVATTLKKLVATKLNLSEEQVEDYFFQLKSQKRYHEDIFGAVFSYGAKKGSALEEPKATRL

[4] = biological target: Matrix metalloproteinase-9 (Homo sapiens, UniProt P14780); test: biochemical; format: cell-based;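 note: inhibition of isolated MMP-9 enzyme activity toward a synthetic peptide substrate, from the DrugMatrix protease screening panel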
Chain of Matrix metalloproteinase-9 (P14780 whole entry): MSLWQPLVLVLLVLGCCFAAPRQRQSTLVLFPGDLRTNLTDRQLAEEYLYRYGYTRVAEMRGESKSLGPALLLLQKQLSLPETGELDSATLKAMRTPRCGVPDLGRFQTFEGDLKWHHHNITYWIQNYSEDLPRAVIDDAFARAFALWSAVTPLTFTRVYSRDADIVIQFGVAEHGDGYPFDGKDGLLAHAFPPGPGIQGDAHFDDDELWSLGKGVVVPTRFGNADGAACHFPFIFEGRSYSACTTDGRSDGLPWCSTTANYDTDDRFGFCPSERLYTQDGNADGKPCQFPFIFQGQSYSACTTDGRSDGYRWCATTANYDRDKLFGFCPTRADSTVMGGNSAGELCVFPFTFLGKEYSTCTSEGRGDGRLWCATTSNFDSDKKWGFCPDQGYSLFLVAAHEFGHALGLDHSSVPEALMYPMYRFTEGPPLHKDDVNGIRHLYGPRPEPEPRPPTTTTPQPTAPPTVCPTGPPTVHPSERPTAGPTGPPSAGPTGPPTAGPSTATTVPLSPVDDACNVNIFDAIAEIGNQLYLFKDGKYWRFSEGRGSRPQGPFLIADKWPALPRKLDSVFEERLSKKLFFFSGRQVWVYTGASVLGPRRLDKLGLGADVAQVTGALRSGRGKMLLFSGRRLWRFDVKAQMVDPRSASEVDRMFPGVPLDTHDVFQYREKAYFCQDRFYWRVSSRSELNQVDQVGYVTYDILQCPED

[5] = biological target: T3, 5-hydroxytryptamine receptor 1A (Rattus norvegicus, UniProt P19327); format: cell membranes, CHO-K1, Membrane; settings: cho-k1
T3 sequence (P19327 whole entry): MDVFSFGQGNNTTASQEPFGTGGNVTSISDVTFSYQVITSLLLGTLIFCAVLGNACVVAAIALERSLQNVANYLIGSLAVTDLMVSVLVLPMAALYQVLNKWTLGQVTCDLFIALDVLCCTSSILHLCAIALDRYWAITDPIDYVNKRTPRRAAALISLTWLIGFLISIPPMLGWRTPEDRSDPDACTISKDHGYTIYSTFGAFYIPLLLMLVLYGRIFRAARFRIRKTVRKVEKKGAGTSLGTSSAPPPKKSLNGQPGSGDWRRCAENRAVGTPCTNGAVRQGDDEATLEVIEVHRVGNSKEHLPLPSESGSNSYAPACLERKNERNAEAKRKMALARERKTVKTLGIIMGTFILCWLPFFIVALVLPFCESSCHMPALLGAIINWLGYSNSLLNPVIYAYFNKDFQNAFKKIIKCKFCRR

[6] = biological target: T4, Cytochrome P450 1A2 (Homo sapiens, UniProt P05177); settings: bti-tn-5b1-4
T4 sequence (P05177 whole entry): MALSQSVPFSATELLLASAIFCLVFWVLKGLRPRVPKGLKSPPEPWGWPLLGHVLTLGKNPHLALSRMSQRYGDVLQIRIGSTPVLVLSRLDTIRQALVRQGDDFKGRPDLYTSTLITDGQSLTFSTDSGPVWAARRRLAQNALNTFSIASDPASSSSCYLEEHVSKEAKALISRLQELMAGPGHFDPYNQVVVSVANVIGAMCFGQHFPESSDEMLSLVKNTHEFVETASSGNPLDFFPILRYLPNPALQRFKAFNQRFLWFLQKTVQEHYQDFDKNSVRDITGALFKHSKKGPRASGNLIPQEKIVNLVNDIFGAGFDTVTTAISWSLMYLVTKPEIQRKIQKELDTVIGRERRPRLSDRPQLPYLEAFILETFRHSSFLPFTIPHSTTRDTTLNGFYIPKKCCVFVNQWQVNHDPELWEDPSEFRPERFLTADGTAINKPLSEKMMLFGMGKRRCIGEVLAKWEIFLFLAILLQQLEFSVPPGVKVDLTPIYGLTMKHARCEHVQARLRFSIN

[7] = biological target: Voltage-gated inwardly rectifying potassium channel KCNH2 (Homo sapiens, UniProt Q12809); settings: hek293
Chain of Voltage-gated inwardly rectifying potassium channel KCNH2 (Q12809 whole entry): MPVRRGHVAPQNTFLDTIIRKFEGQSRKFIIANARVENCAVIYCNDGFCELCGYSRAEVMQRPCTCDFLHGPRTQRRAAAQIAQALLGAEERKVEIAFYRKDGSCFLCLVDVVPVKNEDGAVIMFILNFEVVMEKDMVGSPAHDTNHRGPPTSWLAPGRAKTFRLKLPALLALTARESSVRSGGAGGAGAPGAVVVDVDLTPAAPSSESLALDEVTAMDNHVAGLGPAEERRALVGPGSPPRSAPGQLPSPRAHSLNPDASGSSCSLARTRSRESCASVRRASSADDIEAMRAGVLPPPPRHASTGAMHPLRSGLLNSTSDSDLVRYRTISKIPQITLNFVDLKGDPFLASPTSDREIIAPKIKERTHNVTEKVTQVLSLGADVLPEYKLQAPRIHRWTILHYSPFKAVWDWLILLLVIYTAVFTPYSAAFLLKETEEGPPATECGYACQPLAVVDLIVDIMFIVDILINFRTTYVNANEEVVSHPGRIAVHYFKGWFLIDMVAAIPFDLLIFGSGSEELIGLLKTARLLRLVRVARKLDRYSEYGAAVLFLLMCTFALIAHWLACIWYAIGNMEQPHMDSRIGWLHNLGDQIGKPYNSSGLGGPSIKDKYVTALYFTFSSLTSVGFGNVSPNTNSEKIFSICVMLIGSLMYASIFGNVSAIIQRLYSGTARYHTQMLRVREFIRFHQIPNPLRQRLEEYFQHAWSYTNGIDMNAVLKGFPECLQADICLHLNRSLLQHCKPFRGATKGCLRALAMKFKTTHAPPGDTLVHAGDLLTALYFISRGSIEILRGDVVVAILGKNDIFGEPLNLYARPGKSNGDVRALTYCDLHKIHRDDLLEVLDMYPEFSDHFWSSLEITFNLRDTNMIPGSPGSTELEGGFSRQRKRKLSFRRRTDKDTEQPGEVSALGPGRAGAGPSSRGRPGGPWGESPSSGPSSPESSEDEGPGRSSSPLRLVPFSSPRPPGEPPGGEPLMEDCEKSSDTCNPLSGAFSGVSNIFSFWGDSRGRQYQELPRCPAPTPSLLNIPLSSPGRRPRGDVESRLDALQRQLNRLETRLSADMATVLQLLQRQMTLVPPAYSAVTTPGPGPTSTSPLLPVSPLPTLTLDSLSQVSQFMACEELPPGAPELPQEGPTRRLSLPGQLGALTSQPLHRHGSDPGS
Note: in other assays of this panel Not Active means under 50% inhibition at 10 µM.

| Structure (SMILES) | IC50 [1] | IC50 ([2]; cho-k1) | IC50 [3] | IC50 [4] | IC50 [5] | IC50 [6] | Ki [6] | IC50 [7] | Ki [7] | IC50 ([2]; read-out: IC50) [nM] | Ki ([2]; read-out: Ki) [nM] |
| --- | --- | --- | --- | --- | --- | --- | --- | --- | --- | --- | --- |
| Nn1nnc2ccccc21 | Not Active | Not Active | Not Active | Not Active | Not Active | Not Active | Not Active | Not Active | Not Active |  |  |
| CC[C@]1(O)CC[C@H]2[C@@H]3CCC4=CCCC[C@@H]4[C@H]3CC[C@@]21C | Not Active | Not Active | Not Active | Not Active | Not Active | Not Active | Not Active | Not Active | Not Active |  |  |
| N[C@@H](Cc1ccc(F)cc1)C(=O)O | Not Active | Not Active | Not Active | Not Active | Not Active |  |  | Not Active | Not Active |  |  |
| CCOC(=O)[C@H](CCc1ccccc1)N[C@@H](C)C(=O)N1Cc2ccccc2C[C@H]1C(=O)O | Not Active | Not Active | Not Active | Not Active | Not Active | Not Active | Not Active | Not Active | Not Active |  |  |
| O=C(c1ccccc1Cl)N1CCC(Cc2ccccc2)CC1 | Not Active |  | Not Active | Not Active | Not Active | Not Active | Not Active | Not Active | Not Active | 1510 | 960 |
| CCOC(=O)[C@H](CCc1ccccc1)N[C@@H](C)C(=O)N1CCC[C@H]1C(=O)O | Not Active | Not Active | Not Active | Not Active | Not Active | Not Active | Not Active | Not Active | Not Active |  |  |
| Clc1cc2c(cc1Cl)Oc1cc(Cl)c(Cl)cc1O2 [2,3,7,8-TETRACHLORODIBENZO-P-DIOXIN] | Not Active | Not Active | Not Active | Not Active | Not Active | Not Active | Not Active | Not Active | Not Active |  |  |
| C=C1/C(=C\C=C2/CCC[C@]3(C)[C@@H]([C@H](C)CCCC(C)C)CC[C@@H]23)C[C@@H](O)C[C@@H]1O [ALFACALCIDOL] | Not Active | Not Active | Not Active | Not Active | Not Active | Not Active | Not Active | Not Active | Not Active |  |  |
| CCCCCC[C@H]1C(=O)O[C@H](C)[C@H](NC(=O)c2cccc(NC=O)c2O)C(=O)O[C@@H](C)[C@@H]1OC(=O)CC(C)C [ANTIMYCIN A] | Not Active | Not Active | Not Active | Not Active | Not Active | Not Active | Not Active | Not Active | Not Active |  |  |
| C[C@@H]1CC[C@H]2[C@@H](C)C(=O)O[C@@H]3O[C@@]4(C)CC[C@@H]1[C@]32OO4 [ARTEMISININ] | Not Active | Not Active | Not Active | Not Active | Not Active |  |  | Not Active | Not Active |  |  |
| COc1cc(CNC(=O)CCCC/C=C/C(C)C)ccc1O [CAPSAICIN] | Not Active | Not Active | Not Active | Not Active | Not Active |  |  | Not Active | Not Active |  |  |
| CCC[C@@H]1C[C@@H](C(=O)N[C@@H]([C@H]2O[C@H](SC)[C@H](O)[C@@H](O)[C@H]2O)[C@H](C)Cl)N(C)C1 [CLINDAMYCIN] | Not Active | Not Active | Not Active | Not Active | Not Active |  |  |  |  |  |  |
| CN1C(=O)CN=C(c2ccccc2)c2cc(Cl)ccc21 [DIAZEPAM] | Not Active | Not Active | Not Active | Not Active | Not Active |  |  |  |  |  |  |
| CCOC(=O)C1=C(C)NC(C)=C(C(=O)OC)C1c1cccc(Cl)c1Cl (stereo not given) [FELODIPINE] | Not Active | Not Active | Not Active | Not Active | Not Active |  |  | Not Active | Not Active |  |  |
| Cc1cn[nH]c1 [FOMEPIZOLE] | Not Active | Not Active | Not Active | Not Active | Not Active |  |  | Not Active | Not Active |  |  |
| Cc1cnc(C(=O)NCCc2ccc(S(=O)(=O)NC(=O)NC3CCCCC3)cc2)cn1 [GLIPIZIDE] | Not Active | Not Active |  | Not Active | Not Active |  |  |  |  |  |  |
| COc1ccccc1OCC(O)CO (stereo not given) [GUAIFENESIN] | Not Active | Not Active | Not Active | Not Active | Not Active |  |  | Not Active | Not Active |  |  |
| C/C=C\c1ccc(O)c(OC)c1 [ISOEUGENOL] | Not Active | Not Active | Not Active | Not Active | Not Active |  |  |  |  |  |  |
| NC[C@H]1O[C@H](O[C@H]2[C@H](O)[C@@H](O[C@H]3O[C@H](CO)[C@@H](O)[C@H](N)[C@H]3O)[C@H](N)C[C@@H]2N)[C@H](O)[C@@H](O)[C@@H]1O [KANAMYCIN] | Not Active | Not Active | Not Active | Not Active | Not Active |  |  | Not Active | Not Active |  |  |
| CC[C@H](C)C(=O)O[C@H]1C[C@@H](C)C=C2C=C[C@H](C)[C@H](CC[C@@H]3C[C@@H](O)CC(=O)O3)[C@H]21 [LOVASTATIN] | Not Active | Not Active | Not Active | Not Active | Not Active | Not Active | Not Active |  |  |  |  |
| COc1ccc2cc(CCC(C)=O)ccc2c1 [NABUMETONE] | Not Active | Not Active | Not Active | Not Active | Not Active |  |  | Not Active | Not Active |  |  |
| OCCN1CCN(CCCN2c3ccccc3Sc3ccc(Cl)cc32)CC1 [PERPHENAZINE] | Not Active | Not Active | Not Active | Not Active | Not Active |  |  |  |  |  |  |
